Test results: ChEMBL document CHEMBL6115011, “Optimizing biofilm inhibitors: Balancing activity and toxicity in 2N-aminated 5-aryl-2-aminoimidazoles” (Bioorg Med Chem, 2025)

Legend:
Staphylococcus aureus [1] = test: Antibacterial activity against methicillin-resistant Staphylococcus aureus at 25 degree C measured after 48 hrs by crystal violet staining based microplate reader analysis; format: functional, organism-based
Staphylococcus aureus [2] = test: Inhibition of biofilm formation in Staphylococcus aureus SH1000 at 25 degree C measured after 48 hrs by crystal violet staining based analysis; format: functional, organism-based; conditions: SH1000, 48 h
Escherichia coli [3] = test: Inhibition of biofilm formation in Escherichia coli TG1 at 25 degree C measured after 24 hrs by crystal violet staining based microplate reader analysis; format: functional, organism-based; conditions: TG1, 24 h
HCT-116 = test: Cytotoxicity against human HCT-116 cells assessed as inhibition of cell growth measured after 72 hrs by CellTiter 96 Aqueous One Solution Cell Proliferation Assay; format: functional
Staphylococcus aureus [4] = test: Antibacterial activity against Staphylococcus aureus SH1000 at 25 degree C measured after 48 hrs by crystal violet staining based microplate reader analysis; format: functional, organism-based; conditions: SH1000, 48 h
Pseudomonas aeruginosa [5] = test: Inhibition of biofilm formation in Pseudomonas aeruginosa PA14 at 25 degree C measured after 24 hrs by crystal violet staining based analysis; format: functional, organism-based; conditions: PA14, 24 h
Escherichia coli [6] = test: Antibacterial activity against Escherichia coli TG1 at 25 degree C measured after 24 hrs by crystal violet staining based microplate reader analysis; format: functional, organism-based; conditions: TG1, 24 h
Staphylococcus aureus [7] = test: Inhibition of biofilm formation in methicillin-resistant Staphylococcus aureus at 25 degree C measured after 48 hrs by crystal violet staining based analysis; format: functional, organism-based
[8] = Genotoxicity in human CAPAN-1 cells assessed as fold change at 400 uM measured after 3 hrs by Western blot analysis; format: toxicity, cell-based; conditions: capan-1, 3 h
[9] = tested on: Staphylococcus epidermidis; test: Antibacterial activity against Staphylococcus epidermidis at 25 degree C measured after 48 hrs by crystal violet staining based microplate reader analysis; format: functional, organism-based
HL-60 = test: Cytotoxicity against human HL-60 cells assessed as inhibition of cell growth measured after 72 hrs by CellTiter 96 Aqueous One Solution Cell Proliferation Assay; format: functional
Pseudomonas aeruginosa [10] = test: Antibacterial activity against Pseudomonas aeruginosa PA14 at 25 degree C measured after 24 hrs by crystal violet staining based microplate reader analysis; format: functional, organism-based; conditions: PA14, 24 h
[11] = tested on: Staphylococcus epidermidis; test: Inhibition of biofilm formation in Staphylococcus epidermidis at 25 degree C measured after 48 hrs by crystal violet staining based analysis; format: functional, organism-based
[12] = Genotoxicity in human CAPAN-1 cells assessed as fold change at 100 uM measured after 3 hrs by Western blot analysis; format: toxicity, cell-based; conditions: capan-1, 3 h
Z-138 = test: Cytotoxicity against human Z138 cells assessed as inhibition of cell growth measured after 72 hrs by CellTiter 96 Aqueous One Solution Cell Proliferation Assay; format: functional
LN-229 = test: Cytotoxicity against human LN-229 cells assessed as inhibition of cell growth measured after 72 hrs by CellTiter 96 Aqueous One Solution Cell Proliferation Assay; format: functional; conditions: Homo sapiens, LN-229, 72 h
CAPAN-1 = test: Cytotoxicity against human CAPAN-1 cells assessed as inhibition of cell growth measured after 72 hrs by CellTiter 96 Aqueous One Solution Cell Proliferation Assay; format: functional
NCI-H460 = test: Cytotoxicity against human NCI-H460 cells assessed as inhibition of cell growth measured after 72 hrs by CellTiter 96 Aqueous One Solution Cell Proliferation Assay; format: functional
K562 = test: Cytotoxicity against human K562 cells assessed as inhibition of cell growth measured after 72 hrs by CellTiter 96 Aqueous One Solution Cell Proliferation Assay; format: functional; conditions: Homo sapiens, K562, 72 h
[13] = Cytotoxicity against human PBMC cells assessed as survival rate at 100 uM measured after 72 hrs by trypan blue staining based assay relative to control; format: toxicity, cell-based; conditions: read-out: Survival
[14] = Cytotoxicity against human PBMC cells assessed as survival rate at 400 uM measured after 72 hrs by trypan blue staining based assay relative to control; format: toxicity, cell-based; conditions: read-out: Survival
[15] = Cytotoxicity against human DND41 cells assessed as inhibition of cell growth measured after 72 hrs by CellTiter 96 Aqueous One Solution Cell Proliferation Assay; format: functional
[16] = Cytotoxicity against human PBMC cells assessed as survival rate at 25 uM measured after 72 hrs by trypan blue staining based assay relative to control; format: toxicity, cell-based; conditions: read-out: Survival
[17] = Genotoxicity in human CAPAN-1 cells at 100 to 400 uM measured after 3 hrs by Western blot analysis; format: toxicity, cell-based; conditions: capan-1, 3 h, dose 100-400 µM
[18] = Toxicity in Caenorhabditis elegans CB5612 assessed as increase in food depletion delay by wide field microscopy based analysis

SMILES | IC50 (Staphylococcus aureus [1]) | IC50 (Staphylococcus aureus [2]) | IC50 (Escherichia coli [3]) | IC50 (Staphylococcus aureus [4]) | IC50 (Pseudomonas aeruginosa [5]) | IC50 (Escherichia coli [6]) | IC50 (Staphylococcus aureus [7]) | fold change (FC) [8] | IC50 [9] | IC50 (Pseudomonas aeruginosa [10]) | IC50 [11] | other results
NCCCCCCCCCCNc1ncc(-c2ccccc2)[nH]1 | 23.8 µM | 24.9 µM | 18.6 µM | 15.3 µM | 16.8 µM | 17.8 µM | 19.8 µM | 2 | 25.7 µM | 60.7 µM | 8.2 µM | CC50 (HCT-116): 46.9 µM; CC50 (HL-60): 47.1 µM
CCCCCCNc1ncc(-c2ccc(Cl)cc2)[nH]1 |  | 141 µM | 11.3 µM | 186 µM | 40.6 µM | 21.8 µM |  |  |  | 38.7 µM |  | 
CCCCCCCCn1c(-c2ccccc2)cnc1NC1CCCC1 |  | 8.34 µM | 6.55 µM | 8.35 µM | > 800 µM | 8.37 µM |  |  |  | 20.6 µM |  | 
CCCCCCCCn1c(-c2ccc(Br)cc2)cnc1NC1CCCC1 |  | 63.2 µM | 14 µM | 33.1 µM | > 800 µM | 25.7 µM |  |  |  | 25.2 µM |  | 
CCc1c2c(nc3ccc(O)cc13)-c1cc3c(c(=O)n1C2)COC(=O)[C@]3(O)CC [7-ETHYL-10-HYDROXYCAMPTOTHECIN] |  |  |  |  |  |  |  | 9 |  |  |  | fold change (FC) [12]: > 7
NCCCCCCNc1ncc(-c2ccc(Cl)cc2)[nH]1 | 16.1 µM | 86.5 µM | 3.28 µM | 71.2 µM | 4.24 µM | 16.1 µM | 28.3 µM | 14.6 | 90.8 µM | 22.3 µM | 42.1 µM | CC50 (HCT-116): 40 µM; CC50 (Z-138; Homo sapiens, Z-138, 72 h): 11 µM; CC50 (LN-229): 40 µM; CC50 (CAPAN-1): 40 µM; CC50 (NCI-H460): 40 µM; CC50 (K562): 36.2 µM; CC50 (HL-60): 13.2 µM
NCCCCCCCCNc1ncc(-c2ccc(Cl)cc2)[nH]1 | 93.7 µM | 15.8 µM | 16.6 µM | 12.5 µM | 19.2 µM | 16.9 µM | 34.8 µM | 12.1 | 51.2 µM | 21 µM | 59.6 µM | viability at 72 h, 100 µM [13]: 17.5%; viability at 72 h, 400 µM [14]: 0.5%; CC50 [15]: 20 µM; viability at 72 h, 25 µM [16]: 79.6%; CC50 (Z-138; 72 h): 20 µM; CC50 (Z-138; Homo sapiens, Z-138, 72 h): 21.6 µM; CC50 (K562): 20 µM; CC50 (HL-60): 20 µM
NCCCCCNc1ncc(-c2ccccc2)[nH]1 | 503 µM | 91.7 µM | 38.3 µM | 224 µM | 16.5 µM | 80 µM | 154 µM |  |  | 61.2 µM | 25.6 µM | Activity [17]: Non-toxic
NCCCCCCCCn1c(-c2ccccc2)cnc1NC1CCCC1 |  | 70.4 µM | 33.5 µM | 79.4 µM | 107 µM | 85.1 µM |  |  |  | 74.4 µM |  | 
NCCCCCCCNc1ncc(-c2ccccc2)[nH]1 | 72.6 µM | 64.7 µM | 17.3 µM | 106 µM | 12.4 µM | 39.7 µM | 48.9 µM |  |  | 33.3 µM | 12.3 µM | Activity [17]: Non-toxic; CC50 (CAPAN-1): 41.1 µM; CC50 (NCI-H460): 68.8 µM
NCCCCCCCCCCCCNc1ncc(-c2ccccc2)[nH]1 | 19.7 µM | 25.4 µM | 9.6 µM | 14 µM | 6.7 µM | 9.5 µM | 12.8 µM | 1.95 | 32 µM | 12.3 µM | 23.8 µM | viability at 72 h, 100 µM [13]: < 50%; Time [18]: 3.5 days; viability at 72 h, 400 µM [14]: 4.5%; fold change (FC) [12]: 2.75; viability at 72 h, 25 µM [16]: 6%
CCCCCCCCNc1ncc(-c2ccc(Cl)cc2)[nH]1 |  | 43.1 µM | 8.42 µM | 84.4 µM | > 200 µM | 72.3 µM |  |  |  | 70.2 µM |  | 
NCCCCCCCCn1c(-c2ccc(Br)cc2)cnc1NC1CCCC1 |  | 167 µM | 25.2 µM | 56.1 µM | 147 µM | 43.4 µM |  |  |  | 61.4 µM |  | viability at 72 h, 400 µM [14]: 48%
OB(O)O [BORIC ACID] |  |  |  |  |  |  |  |  |  |  |  | Time [18]: > 10 days
COc1cc([C@@H]2c3cc4c(cc3[C@@H](O[C@@H]3O[C@@H]5CO[C@@H](C)O[C@H]5[C@H](O)[C@H]3O)[C@H]3COC(=O)[C@H]23)OCO4)cc(OC)c1O [ETOPOSIDE] |  |  |  |  |  |  |  | > 8 |  |  |  | viability at 72 h, 100 µM [13]: 71%; viability at 72 h, 400 µM [14]: 38%; fold change (FC) [12]: 10; viability at 72 h, 25 µM [16]: < 67%
NCCCCCCCCCCCNc1ncc(-c2ccccc2)[nH]1 | 47.7 µM | 37.5 µM | 15.5 µM | 28.6 µM | 8.3 µM | 14.2 µM | 18.1 µM | 1.75 | 25 µM | 16.7 µM | 1.8 µM | Time [18]: 3 days
NCCCCCCNc1ncc(-c2ccc(Br)cc2)[nH]1 | 106 µM | 59.6 µM | 14.2 µM | 38.6 µM | 11.2 µM | 21 µM | 60 µM | 5.75 | 85.2 µM | 27.4 µM | 35.3 µM | Time [18]: 0.66 days; fold change (FC) [12]: 2.3; CC50 (HCT-116): 40 µM; CC50 (LN-229): 40 µM; CC50 (CAPAN-1): 40 µM; CC50 (NCI-H460): 40 µM
